# Assay results as given in US11091429B2, “Organic compounds” (Givaudan SA, priority 2012, dated 2021).
# “Also recorded” adds a separate entry of the source.
# Columns and labels:
# [1] = Tasting in mango juice drink, 1% clear mango juice; settings: 1 ppm, 8% sucrose, 0.1% citric acid, mango flavour 0.05%
# Description: Comparison in a Mango Juice Drink
# Base is 8% sucrose, 0.1% citric acid, 1% clear mango juice, and a proprietary mango flavour at 0.05%.
# (§1) Samples were evaluated by expert tasters. Tasters were asked to describe the samples focusing on authentic taste, mouthfeel, fullness, salty-ness, salivation, umami, sweetness, juiciness, richness, long lastingness and fattiness.
# Base is water, 8% sucrose, 0.1% citric acid, 1% clear mango juice, proprietary mango flavour @ 0.05%
# (§2) Samples were evaluated by expert tasters. Tasters were asked to describe the samples focusing on authentic taste, mouthfeel, fullness, salivation, salty-ness, umami, sweetness, juiciness, richness, long lastingness and fattiness.
# Base is water, 8% sucrose, 0.1% citric acid, 1% clear mango juice, proprietary mango flavour @0.05%
# (§3) Samples were evaluated by expert tasters. Tasters were asked to describe the samples focusing on authentic taste, mouthfeel, fullness, salty-ness, salivation, umami, sweetness, juiciness, richness, long lastingness and fattiness
# Base is 8% sucrose, 0.1% citric acid, 1% clear mango juice, proprietary mango flavour @ 0.05%
# (§4) Samples were evaluated by expert tasters. Tasters were asked to describe the samples focusing on authentic taste, mouth feel, fullness, salivation, salty-ness, umami, sweetness, juiciness, richness, long lastingness and fattiness
# Base is water, 8% sucrose, 0.1% citric acid, 1% clear mango juice, proprietary mango flavour @ 0.05%.
# Test in a Mango Juice Drink
# [2] = Test in orange beverage; settings: 1 ppm; water, 7% sugar (8% sucrose elsewhere in the source), 0.1% citric acid, orange flavour 0.06%
# Description: as §1
# Base is water, 7% sugar, 0.1% citric acid, proprietary orange flavour @ 0.06%.
# as §3
# Base is water, 7% sugar, 0.1% citric acid, proprietary orange flavour @ 0.06%
# as §4
# Samples were evaluated by expert tasters. Tasters were asked to describe the samples focusing on authentic taste, mouthfeel, fullness, salivation, sweetness, juiciness, richness, long lastingness and fattiness
# Comparison in an Orange Drink
# Base: water, 8% sucrose, 0.1% citric acid, proprietary orange flavour @ 0.06%.
# [3] = Test in lemon beverage; settings: 1 ppm; water, 7% sucrose, 0.15% citric acid, lemon flavor
# Description: as §1
# Basis water, 7% sucrose, 0.15% citric acid, proprietary lemon flavor
# as §3
# [4] = Tasting in Maggi beef bouillon; settings: Maggi beef bouillon 1 tablet in 500 ml of hot water
# Description: (§5) Samples were prepared and evaluated by expert tasters. Tasters were asked to describe the samples focusing on authentic taste, mouthfeel, fullness, salty-ness, salivation, umami, sweetness, juiciness, richness, long lastingness and fattiness.
# Comparison in Beef Bouillon
# Base is Maggi beef bouillon 1 tablet in 500 ml of hot water
# as §1, §2, §3, §4
# [5] = Tasting in beef bouillon base; settings: 0.5% fat
# Description: (§6) The following formulations were prepared and tasted by trained panelists.
# Beef Bouillon base 1.0% salt, 0.5% fat
# [6] = Tasting on fried potato snack product; settings: 35% fat, cheese seasoning
# Description: as §6
# A snack product consisting of a fried potato base, containing 35% fat and flavored with cheese seasoning containing salt, MSG, dairy, organic acids, sugars, and a flavour formulation. The following compounds were added to the snack product at the indicated levels and the tasting results are reported: […]
# [7] = Tasting in soy sauce; settings: 0.5 ppm in Kikkoman soy sauce low salt
# Description: as §6
# Salt level pure product between 5-40%
# Salt level in application 0.3-1.0%
# as §5
# Test on Kikkoman Soy Sauce Low Salt
# Base is Kikkoman soy sauce
# (§7) Samples were prepared and evaluated by expert tasters. Tasters were asked to describe the samples focusing on authentic taste, mouthfeel, fullness, salivation, salty-ness, umami, sweetness, juiciness, richness, long lastingness and fattiness.
# [8] = Tasting in vanilla flavoured milk 3.0% fat; settings: 4% sugar, vanillin 10 ppm, vanilla extract 0.03%
# Description: Vanilla Flavoured Milk 3.0% Fat
# In a 3% fat milk drink, sweetened with 4% sucrose by weight, flavoured with Vaniline @ 10 ppm and a Vanilla extract @ 0.03% C18:2-gaba, C18:1-ACOA and C18:1-glu were added at 0.5 or 2 ppm.
# Samples were evaluated by expert tasters. Tasters were asked to describe the samples focusing on authentic taste, mouthfeel, fullness, salivation, sweetness, juiciness, richness, long lastingness and fattiness.
# Base: Milk 3% fat, 4% sugar, vanillin 10 ppm, vanilla extract 0.03%
# [9] = Test in peach flavoured drink; settings: 1 ppm; water, 8% sugar, 0.1% citric acid, peach flavour 0.05%
# Description: as §5
# Test in Peach Flavoured Drink:
# Base is water, 8% sugar, 0.1% citric acid, and proprietary peach flavour at 0.05%
# as §1
# Comparison in a Peach Drink
# Base is water, 8% sugar, 0.1% citric acid, proprietary peach flavour at 0.05%
# as §2
# [10] = Test in chocolate flavoured drink; settings: water, 4% sucrose, chocolate flavour 0.03%
# Description: as §5
# Test in Chocolate Flavoured Drink:
# Base: Water, 4% sucrose, proprietary chocolate flavor at 0.03%
# as §1
# Test in Chocolate Flavoured Drink Flavoured
# Base: Water, 4% sucrose, proprietary chocolate flavour @ 0.03%
# [11] = Test in pear flavoured drink; settings: water, 0.1% citric acid, pear flavour 0.025%
# Description: as §5
# Test in Pear Flavoured Drink:
# Base: water, 7% sugar, 0.1% citric acid, proprietary pear flavour at 0.025%
# as §1
# Comparison in a Pear Drink
# Base is water, 8% sugar, 0.1% citric acid, proprietary pear flavour at 0.025%
# [12] = Tasting in vanilla milk 0.15% fat; settings: 4% sucrose, Vaniline 10 ppm + vanilla extract 0.03%
# Description: as §5
# Base: Milk 0.15% fat, sweetened with 4% sucrose by weight, flavoured with proprietary
# Vaniline flavour @ 10 ppm+Vanilla ext. @ 0.03%
# as §1
# Comparison in a Vanilla Milk Drink
# Vaniline @ 10 ppm+Vanilla extract @ 0.03%
# Base: Milk 0.15% fat, sweetened with 4% sucrose by weight, flavoured with proprietary Vaniline @ 10 ppm+Vanilla extract @ 0.03%
# [13] = Tasting in chicken bouillon; settings: 0.7% salt, 0.5% fat
# Description: as §6
# Standard Chicken bouillon base, 0.7% salt, 0.5% fat
# as §7
# Test in Soups and Bouillons
# Standard Chicken Bouillon Base
# [14] = Tasting in strawberry drink; settings: 0.5 ppm; 7% sucrose, 0.1% citric acid, strawberry flavour 0.015%
# Description: as §5
# Comparison in a Strawberry Drink
# Base is 7% sucrose, 0.1% citric acid, and a proprietary strawberry flavour @ 0.015%
# as §1
# Base is water, 7% sucrose, 0.1% citric acid, proprietary strawberry flavour @ 0.015%
# as §2
# Test in a Strawberry Drink
# Base is 7% sucrose, 0.1% citric acid, proprietary strawberry flavour @ 0.015%
# [15] = 0.5 PPM in beef bouillon base 1.0% salt
# [16] = 1 ppm, 7% sugar (8% elsewhere in the source)
# [17] = 0.2 PPM in chicken bouillon base
molecule,measurement,setting,value
CCCCCC/C=C\CCCC(=O)NC(CCSC)C(=O)O (centres unmarked) [C12:1-met],tasting result,[1],"ripe full, more juicy, slightly metallic"
same,tasting result,[2],"nice orange, fresh"
same,tasting result,[3],"fresh, slightly more citral"
same,tasting result,[4]; 1 ppm,more salty
"CCCCC/C=C\C/C=C\CCCCCCCC(=O)NC(CO)C(=O)O (centres unmarked) [C18:2-ser, N-linoleoyl-Ser]",tasting result,[1],"apple note, less acidic, juicy"
same,tasting result,[2],"very fresh, authentic, slightly less sweet, more juicy"
same,tasting result,[4]; 1 ppm,"more umami, slightly more salty, sweet"
"CCCCC/C=C\C/C=C\CCCCCCCC(=O)NCC(=O)O [C18:2-gly, N-linoleoyl-glycine]",tasting result,[2],"very juicy, salivating, authentic, long lasting and sweet aftertaste"
CCCCCCCC/C=C\CCCCCCCC(=O)NC(CCSC)C(=O)O (centres unmarked) [C18:1-met],tasting result,[1],"sweeter, juicy, salivating"
same,tasting result,[5]; [15],Very salty and rich
same,tasting result,[5]; 1.0 PPM in beef bouillon base 1.0% salt,"Full bodied, long lasting, more mouthfeel"
same,tasting result,[6]; 0.25 ppm on fried potato snack,"Salty, aged cheese, succulent"
same,tasting result,[6]; 0.5 ppm on fried potato snack,"Increased cheese, creamy, salty and succulent"
same,tasting result,[2],"very juicy fresh, authentic, juicy"
same,tasting result,[3],"fresh, less floral, very juicy, very authentic"
same,tasting result,[4]; 1 ppm,"very strong salty impact and aftertaste; also recorded: very strong salty impact and aftertaste, more fatty, mouthfeel, lingering full bodied"
same,tasting result,[4]; 25 ppb,"more peppery, more salty"
same,tasting result,[4]; 50 ppb,"more salty, more bouillon taste"
N-oleoyl 1-amino-cyclopropyl carboxylic acid [C18:1-ACCA],tasting result,[7],"Strong upfront saltiness lingering, very strong saltiness"
same,tasting result,[8]; 0.5 ppm,"sweet, sugar-like, vanillic"
"CCCCC/C=C\C/C=C\CCCCCCCC(=O)NC(CC(=O)O)C(=O)O (centres unmarked) [C18:2-asp, N-linoleoyl-Asp]",tasting result,[9],"fatty skin like, slight apple note"
same,tasting result,[10]; 2 ppm,"cardboard, sweet diy"
same,tasting result,[11]; [16],"very juicy, authentic, texture like pear 3D"
same,tasting result,[1],"fatty, authentic fruit like, slight raspberry and pear note"
same,tasting result,[12]; 2 ppm,sweet full very natural vanilla
"CCCCCCCCCC(=O)NC1(C(=O)O)CC1 [C10:0 ACCA, N-decanoyl 1-amino-cyclopropyl carboxylic acid]",tasting result,[13]; [17],More umami lingering body
same,tasting result,[13]; 0.5 PPM in chicken bouillon base,"Nice strong salty, Umami lingering body, better chicken profile"
CCCCCCCC/C=C\CCCCCCCC(=O)NC(CCC(=O)O)C(=O)O (centres unmarked) [C18:1-glu],tasting result,[9],"ripe, much more juicy, long lasting, more fatty and sweet"
same,tasting result,[10]; 0.5 ppm,"full cocoa, nice sweet"
same,tasting result,"[11]; 0.5 ppm, 7% sugar","nice fatty, juicy, long lasting"
same,tasting result,[11]; [16],"ripe, authentic pear, juicy, fatty skin like"
same,tasting result,[1],"heavy, jammy, enhanced mango, more sulfury, sl umami"
same,tasting result,[14],"nice mouthfeel, more natural strawberry, full juicy"
same,tasting result,[12]; 1 ppm,"full, beany, more sweet; also recorded: sweet vanillic"
same,tasting result,[8]; 2 ppm,"full, fatty, vanilla bean enhanced, whipped cream like"
"CCCCCCCCCCCCCCCC(=O)NC(CCSC)C(=O)O (centres unmarked) [C16:0-met, N-palmitoyl-Met]",tasting result,[1],"fatty, full body, juicy, metallic"
same,tasting result,[2],"slightly metallic, fresh"
same,tasting result,[4]; 1 ppm,"salty, full, nice salivating, lingering"
"CCCCC/C=C\C/C=C\CCCCCCCC(=O)N[C@H](C(=O)O)C(C)C [C18:2-val, N-linoleoyl-L-valine]",tasting result,[1],"ripe, very juicy nice, full body, long lasting"
same,tasting result,[5]; [15],"more body and mouthfeel, more umami"
same,tasting result,[4]; 1 ppm,"more umami, salivating, salty"
"CC(C)=CCC/C(C)=C/C(=O)NC1(C(=O)O)CC1 [Geranoyl ACCA, N-geranoyl 1-amino-cyclopropyl carboxylic acid]",tasting result,[13]; [17],Saltier Umami lingering Mouthfeel
"CCCCCC/C=C\CCCCCCCC(=O)NC(CC(C)C)C(=O)O [C16:1 leu, N-palmitenoyl-L-leucine]",tasting result,[5]; [15],Strong salty and rich
"CCCCCCCCCCCCCCCC(=O)NC(CCC(=O)O)C(=O)O (centres unmarked) [C16:0-glu, N-palmitoyl-Glu]",tasting result,[9],"fruity, nice juicy, sweet, soft peach skin"
same,tasting result,[10]; 0.5 ppm,"sweet, fatty cocoa, sulphur is enhanced, enhanced nib note"
same,tasting result,"[11]; 0.5 ppm, 7% sugar",fatty long lasting
same,tasting result,[1],slightly more juicy impact
same,tasting result,[12]; 1 ppm,"ice cream like, sweet, very full"
"CCCCC/C=C\C/C=C\CCCCCCCC(=O)NC1(C(=O)O)CC1 [C18:2 ACCA, N-linoleoyl 1-amino-cyclopropyl carboxylic acid]",tasting result,[13]; [17],"Creamy, full body, more fatty chicken"
CCCCCCCCCCCCCCCC(=O)NCC(=O)O [C16:0-gly],tasting result,[2],sweet after taste juicy
